From patent publication US12350383B2, “Cationic lipids containing silicon” (ARBUTUS BIOPHARMA CORPORATION, priority 2018, dated 2025)

Each molecule was assayed on human EPO expression (assay: In vivo assay: human EPO expression in plasma after IV injection of LNP containing human EPO mRNA (human EPO ELISA)). Details: 0.5 mg/kg LNP with human EPO mRNA, 4 h post dosing, Balb/C mice plasma (n = 4-5), cationic lipid at 55 mol %, 1.6 mol % PEG2000-C-DMA, 33% cholesterol, 11% DSPC.
Parameters: species or system female Balb/C mice
Method: Lipid stocks were prepared (about 7 mg/mL total lipid content) in 100% ethanol, using the lipid identities and molar ratios described. The mRNA was diluted in acetate pH 5 and nuclease-free water to reach a concentration of 0.366 mg/mL mRNA in 100 mM acetate pH 5. Equal volumes of each solution were blended at 400 mL/min in a T-connector, and diluted with about 4 volumes of PBS, pH 7.4, using the direct dilution method described in U.S. Pat. No. 9,404,127. Formulations were then placed in Slide-A-Lyzer dialysis units (MWCO 10,000) and were dialyzed overnight 10 mM Tris, 500 mM NaCl pH 8 (Tris/NaCl buffer). Following dialysis the formulations were concentrated to about 0.6 mg/mL using VivaSpin concentrator units (MWCO 100,000) and then filtered through a 0.2 um syringe filter.
The various lipids of the present invention were formulated in LNP compositions with the following molar ratios: DSPC (11%):Chol (33%):PEG2000-C-DMA (1.6%):Lipid X (55%). A composition was generated comprising the following components: • (a) nucleic acid; • (b) a mixture of cholesterol and DSPC; • (c) a conjugated lipid of formula: […]
Generally, the LNP were injected intravenously at 0.5 mg/kg to female Balb/C mice, 5-8 weeks old and blood was collected at 4-6 hours post dosing; blood is collected into K2EDTA and processed to plasma, then stored frozen at −80° C. until analysis. Activity was assayed by testing the plasma for human EPO expression using an human EPO ELISA kit either from StemCell (catalogue #01630) or R&D Systems (catalogue DEP00) following the manufacturer's instructions.

Compound | EPO [mU/mL]
CCCCC/C=C\CCCO[Si](CCCN(C)C)(OCCC/C=C\CCCCC)OCCC/C=C\CCCCC [Example 2] | 144176
CCCCC/C=C\CCCO[Si](CCCCN(C)C)(OCCC/C=C\CCCCC)OCCC/C=C\CCCCC [Example 4] | 1300807
CCCCCCCCCO[Si](CCCN(C)C)(OCCCCCCCCC)OCCCCCCCCC [Example 6] | 25596
CCCCC/C=C\CCCO[Si](CCCCN(C)CCO)(OCCC/C=C\CCCCC)OCCC/C=C\CCCCC [Example 8] | 30446
CCCCC/C=C\CCCO[Si](CCCCN1CCC(CO)CC1)(OCCC/C=C\CCCCC)OCCC/C=C\CCCCC [Example 9] | 37927
CCCCCCCCCCO[Si](CCCCN(C)C)(OCCCCCCCCCC)OCCCCCCCCCC [Example 11] | 256974
CCCCC/C=C\CCCC(CCC/C=C\CCCCC)O[Si](CCCCN1CCC(CO)CC1)(OC(CCC/C=C\CCCCC)CCC/C=C\CCCCC)OC(CCC/C=C\CCCCC)CCC/C=C\CCCCC [Example 15] | 18385
CN(C)CCCC[Si](OCC12CC3CC(CC(C3)C1)C2)(OCC12CC3CC(CC(C3)C1)C2)OCC12CC3CC(CC(C3)C1)C2 [Example 17] | 226593
CCCCCCC(CCCC)CO[Si](CCCCN(C)C)(OCC(CCCC)CCCCCC)OCC(CCCC)CCCCCC (stereo not shown) [Example 19] | 47218
CCCCC/C=C\CCCO[Si](CCCCCN(C)C)(OCCC/C=C\CCCCC)OCCC/C=C\CCCCC [Example 20] | 2242992
CCCCC/C=C\CCCO[Si](CCCCCCN(C)C)(OCCC/C=C\CCCCC)OCCC/C=C\CCCCC [Example 21] | 1470419
CCCCC/C=C\CCCC(CCC/C=C\CCCCC)CO[Si](CCCN(C)C)(OCC(CCC/C=C\CCCCC)CCC/C=C\CCCCC)OCC(CCC/C=C\CCCCC)CCC/C=C\CCCCC [Example 22] | 15075
C=C(C)C1CC=C(CO[Si](CCCCN(C)C)(OCC2=CCC(C(=C)C)CC2)OCC2=CCC(C(=C)C)CC2)CC1 (stereo not shown) [Example 23] | 17488
